20 molecules from the supplement of paper PMC4862054 can be followed below.

Common to all, as to assay: normalised viability (% of control), CellTiter-Blue; higher = more viable cells (about 100 = DMSO control)
Common to all, as to conditions: incubation time: 72 h

Experiment [1] deals with CAL-148. In outline: (§1)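 Breast cancer cell lines were treated for 72 h in 384-well format and measured by CellTiter-Blue fluorescence at 560/590 nm. Results were normalised per plate to vehicle (100) and a positive kill control (0). The entry is normalised viability at a single listed concentration of the series.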
Experiment [2] has as its system CAL-51. The procedure, abridged:
as §1

Experiment [3] deals with CAL-85-1. The procedure, abridged: as §1
Experiment [4] has as its system DU-4475. In outline: as §1
Experiment [5] deals with HDQ-P1. The procedure, abridged:
as §1

The test system of experiment [6] is MDA-MB-453. In outline: as §1
Experiment [7] concerns CAL-148. Here is the method:
(§2)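 DSRT, CellTiter-Blue viability, 72 h incubation. Signal is normalised to DMSO and benzethonium chloride controls. Value is the normalised response at dose 7.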
The source holds these as a separate data set.

Experiment [8] concerns CAL-51. As for the experimental part:
as §2
The source holds these as a separate data set.

Experiment [9] relates to CAL-85-1. As for the experimental part: as §2
This is another data set of the same source.

For experiment [10], the system named is DU-4475. Here is the method:
as §2
The source holds these as a separate data set.

For experiment [11], the system named is HDQ-P1. Here is the method:
as §2
The source holds these as a separate data set.

For experiment [12], the system named is MDA-MB-453. As for the experimental part: as §2
The source holds these as a separate data set.

Another experiment has as its system BT-549. In outline:
as §1

For the next experiment, the system named is MDA-MB-231. The procedure, abridged:
as §1

The subject of the next experiment is MDA-MB-468. In outline:
as §1

Values joined by “and” are separate entries in the source; they are usually repeats but may differ in a detail not shown here. Identical values can stand only once.

For the molecule `CCCC(CCC)C(=O)O` [Valproic acid] (10000 nM), the normalised viability turned out to be 91.5% in the experiment with CAL-148 [1]; 91.4% in the experiment on CAL-51 [2]; 86.8% with CAL-85-1 [3]; 82.9% in the experiment with DU-4475 [4]; 125% in the experiment on HDQ-P1 [5]; 106% in the experiment with MDA-MB-453 [6].
As for `O=c1[nH]c(=O)n([C@H]2C[C@H](O)[C@@H](CO)O2)cc1F` [Floxuridine] (1000 nM), the normalised viability in the experiment with CAL-148 [7] was 50.6%; in the experiment with CAL-51 [8] it was 31.9%; in the experiment with CAL-85-1 [9] it was 53.1%; in the experiment on DU-4475 [10], 91.6%; in the experiment with HDQ-P1 [11] it was 86.5%; in the experiment on MDA-MB-453 [12], 81.9%.
With `C#Cc1cccc(Nc2ncnc3cc(OC)c(OCCCCCCC(=O)NO)cc23)c1` [CUDC-101] (1000 nM), the normalised viability with CAL-148 [7] was determined as 47%; with CAL-51 [8], 97.7%; in the experiment on CAL-85-1 [9], 24.9%; in the experiment with DU-4475 [10] it was 60.9%; in the experiment with HDQ-P1 [11], 50%; with MDA-MB-453 [12] it was 19.1%.
For `c1ccc(C2CN3CCSC3=N2)cc1` (stereo not given) [Tetramisole], the normalised viability with BT-549 (10 nM) was found to be 105%; in the experiment on BT-549 (1000 nM), 85.6%; in the experiment on BT-549 (10000 nM), 89.1%; with MDA-MB-231 (10 nM), 96.5%; in the experiment with MDA-MB-231 (1000 nM), 91.7%; in the experiment on MDA-MB-231 (10000 nM) it was 104%. The results for the normalised viability in the experiment on MDA-MB-468 (10 nM), with MDA-MB-468 (1000 nM) and in the experiment with MDA-MB-468 (10000 nM) were 101%, 106% and 120%, respectively.
On to `COc1cccc2c1C(=O)c1c(O)c3c(c(O)c1C2=O)C[C@@](O)(C(C)=O)C[C@@H]3O[C@H]1C[C@H](N)[C@H](O)[C@H](C)O1` [Daunorubicin] (1000 nM), for which the normalised viability is -0.25% with CAL-148 [1]; 1.88% with CAL-51 [2]; 12.2% in the experiment with CAL-85-1 [3]; -1.24% in the experiment with DU-4475 [4]; 16% in the experiment with HDQ-P1 [5]; 11.6% in the experiment on MDA-MB-453 [6].
Take `CCOc1cc2ncc(C#N)c(Nc3ccc(OCc4ccccn4)c(Cl)c3)c2cc1NC(=O)/C=C/CN(C)C` [Neratinib] (100 nM): the normalised viability in the experiment on CAL-148 [7] was 101%; in the experiment on CAL-51 [8], 92.6%; in the experiment on CAL-85-1 [9] it was 94.9%; with DU-4475 [10] it was 102%; in the experiment on HDQ-P1 [11], 120%; in the experiment on MDA-MB-453 [12] it was 76%.
For the molecule `C[C@@H]1C=C2C(=O)O[C@@H]3CC[C@H](C1)[C@]23O` [Galiellalactone] (50000 nM), the normalised viability in the experiment with CAL-148 [1] amounted to 22.4%; in the experiment with CAL-51 [2], 43.1%; with CAL-85-1 [3], 9.47%; in the experiment with DU-4475 [4], 77.4%; with HDQ-P1 [5], 41.7%; with MDA-MB-453 [6], 9.52%.
`O=P(O)(NCCCl)NCCCl` [Ifosfamide mustard]: the normalised viability in the experiment with BT-549 (10 nM) was 87.2%; in the experiment with BT-549 (1000 nM), 91%; in the experiment on BT-549 (10000 nM), 107%; in the experiment on MDA-MB-231 (10 nM), 108%; in the experiment with MDA-MB-231 (1000 nM) it was 124%; in the experiment with MDA-MB-231 (10000 nM) it was 86.6%. Further, the normalised viability worked out at 98.5% in the experiment with MDA-MB-468 (10 nM), 93.9% in the experiment with MDA-MB-468 (1000 nM) and 86.9% in the experiment with MDA-MB-468 (10000 nM).
As to `CN1CCN(c2ccc3nc(-c4c(N)c5c(F)cccc5[nH]c4=O)[nH]c3c2)CC1` [Dovitinib] (1000 nM), the normalised viability with CAL-148 [7] was 90.7%; in the experiment on CAL-51 [8], 116%; in the experiment with CAL-85-1 [9] it was 78.3%; with DU-4475 [10], 94.7%; with HDQ-P1 [11], 69.7%; in the experiment on MDA-MB-453 [12], 91.4%.
As to `CC(=O)O[C@H]1C(=O)[C@@]2(C)[C@H]([C@H](OC(=O)c3ccccc3)[C@]3(O)C[C@H](OC(=O)[C@H](O)[C@@H](NC(=O)c4ccccc4)c4ccccc4)C(C)=C1C3(C)C)[C@]1(OC(C)=O)CO[C@@H]1C[C@@H]2O` [Paclitaxel] (100 nM), the normalised viability in the experiment on CAL-148 [7] was 20.8%; in the experiment on CAL-51 [8], 23.4%; with CAL-85-1 [9], 31.8%; in the experiment on DU-4475 [10], 27.3%; with HDQ-P1 [11], 33%; in the experiment with MDA-MB-453 [12], 24.8%.
Turning to `O=c1[nH]cc(F)c(=O)[nH]1` [Fluorouracil] (10000 nM), the normalised viability in the experiment with CAL-148 [1] came out at 55.4%; with CAL-51 [2] it was 47.9%; in the experiment with CAL-85-1 [3] it was 58.3%; in the experiment with DU-4475 [4] it was 75.2%; with HDQ-P1 [5], 74.4%; with MDA-MB-453 [6], 72.9%.
With `CS(=O)(=O)CCNCc1ccc(-c2ccc3ncnc(Nc4ccc(OCc5cccc(F)c5)c(Cl)c4)c3c2)o1` [Lapatinib] (1000 nM), the normalised viability with CAL-148 [7] is 82.4% and 94%; with CAL-51 [8], 105% and 94.6%; in the experiment on CAL-85-1 [9] it was 66.4% and 66.5%; with DU-4475 [10], 94.5% and 86.5%; in the experiment on MDA-MB-453 [12] it was 38% and 36.7%.
Turning to `O=c1[nH]cc(F)c(=O)[nH]1` [Fluorouracil] (1000 nM), the normalised viability with CAL-148 [7] was 75.5%; in the experiment with CAL-51 [8], 102%; in the experiment on CAL-85-1 [9], 74.2%; with DU-4475 [10] it was 105%; with HDQ-P1 [11], 96.1%; with MDA-MB-453 [12], 91.7%.
Turning to `CCS(=O)(=O)c1cccc(-c2cc(C(=O)NC3CCN(C)CC3)c(C)c3[nH]c4ncc(C)cc4c23)c1` [TAK-901] (100 nM), the normalised viability in the experiment on CAL-148 [7] worked out at 40.3%; in the experiment on CAL-51 [8] it was 56.5%; in the experiment with CAL-85-1 [9], 70.4%; in the experiment with DU-4475 [10], 78.5%; in the experiment on HDQ-P1 [11], 87.2%; with MDA-MB-453 [12], 65%.
Turning to `CC(C)C[C@H](NC(=O)[C@H](Cc1ccccc1)NC(=O)c1cnccn1)B(O)O` [Bortezomib] (100 nM), the normalised viability in the experiment with CAL-148 [7] worked out at 18.2%; with CAL-51 [8] it was 2.63%; in the experiment with CAL-85-1 [9], 5.3%; in the experiment on DU-4475 [10], 2.48%; in the experiment with HDQ-P1 [11], 1.22%; with MDA-MB-453 [12] it was 19.4%.
As to `COc1c(C)cnc(Cn2cnc3c(Cl)nc(N)nc32)c1C` [BIIB021] (1000 nM), the normalised viability was determined as 14.6% in the experiment with CAL-148 [7]; 26.1% in the experiment with CAL-51 [8]; 33.4% with CAL-85-1 [9]; 0.09% in the experiment with DU-4475 [10]; 46.8% with HDQ-P1 [11]; 6.04% in the experiment on MDA-MB-453 [12].
With `COc1ccc(C2=N[C@@H](c3ccc(Cl)cc3)[C@@H](c3ccc(Cl)cc3)N2C(=O)N2CCNC(=O)C2)c(OC(C)C)c1` [Nutlin-3] (1000 nM), the normalised viability in the experiment on CAL-148 [7] turned out to be 91.6%; in the experiment with CAL-51 [8] it was 95.8%; in the experiment with CAL-85-1 [9], 88.9%; in the experiment with DU-4475 [10] it was 94.7%; in the experiment on HDQ-P1 [11], 119%; in the experiment with MDA-MB-453 [12], 97.2%.
In the case of `CC(C)(C)c1cc(NC(=O)Nc2ccc(-c3cn4c(n3)sc3cc(OCCN5CCOCC5)ccc34)cc2)no1` [Quizartinib] (100 nM), the normalised viability amounted to 98.8% with CAL-148 [7]; 114% in the experiment on CAL-51 [8]; 89.6% in the experiment with CAL-85-1 [9]; 115% in the experiment with DU-4475 [10]; 95% in the experiment with HDQ-P1 [11]; 96.6% with MDA-MB-453 [12].
As to `COC1=C2C[C@@H](C)C[C@H](OC)[C@H](O)[C@@H](C)/C=C(\C)[C@H](OC(N)=O)[C@@H](OC)/C=C\C=C(/C)C(=O)NC(=CC1=O)C2=O` [Geldanamycin] (1000 nM), the normalised viability is 14.5% in the experiment on CAL-148 [7]; 26.2% in the experiment with CAL-51 [8]; 23.7% in the experiment with CAL-85-1 [9]; 0.05% with DU-4475 [10]; 17.8% in the experiment with HDQ-P1 [11]; 7.25% with MDA-MB-453 [12].
Consider `C[C@@]1(C(=O)Nc2ccc(F)nc2)CCCN1c1nc(Nc2cc(C3CC3)n[nH]2)c2cccn2n1` (1000 nM), for which the normalised viability in the experiment on CAL-148 [7] is 79.6%; in the experiment with CAL-51 [8], 63.4%; with CAL-85-1 [9] it was 49.4%; in the experiment on DU-4475 [10] it was 78.6%; with HDQ-P1 [11] it was 32.3%; in the experiment on MDA-MB-453 [12] it was 56.6%.
